Test results as given in patent publication US5747327A, “Phospholipase D gene originated from plant” (priority 1993, dated 1998).

Key:
[1] = target: T1, rice bran phospholipase D (PLD), Oryza sativa variety Koshihikari, eluted solution Mono Q 2nd-I (Oryza sativa, UniProt Q43007); assay: Km of purified rice bran PLD, fraction Mono Q 2nd-I (choline oxidase method); assay type: biochemical; settings: Mono Q 2nd-I fraction; phosphatidylcholine as the substrate, choline quantified by choline oxidase method
T1 construct: processed N-terminus (residues 1-46 removed according to earlier note), precursor 812 aa
T1 sequence (Q43007 47-812 P139S): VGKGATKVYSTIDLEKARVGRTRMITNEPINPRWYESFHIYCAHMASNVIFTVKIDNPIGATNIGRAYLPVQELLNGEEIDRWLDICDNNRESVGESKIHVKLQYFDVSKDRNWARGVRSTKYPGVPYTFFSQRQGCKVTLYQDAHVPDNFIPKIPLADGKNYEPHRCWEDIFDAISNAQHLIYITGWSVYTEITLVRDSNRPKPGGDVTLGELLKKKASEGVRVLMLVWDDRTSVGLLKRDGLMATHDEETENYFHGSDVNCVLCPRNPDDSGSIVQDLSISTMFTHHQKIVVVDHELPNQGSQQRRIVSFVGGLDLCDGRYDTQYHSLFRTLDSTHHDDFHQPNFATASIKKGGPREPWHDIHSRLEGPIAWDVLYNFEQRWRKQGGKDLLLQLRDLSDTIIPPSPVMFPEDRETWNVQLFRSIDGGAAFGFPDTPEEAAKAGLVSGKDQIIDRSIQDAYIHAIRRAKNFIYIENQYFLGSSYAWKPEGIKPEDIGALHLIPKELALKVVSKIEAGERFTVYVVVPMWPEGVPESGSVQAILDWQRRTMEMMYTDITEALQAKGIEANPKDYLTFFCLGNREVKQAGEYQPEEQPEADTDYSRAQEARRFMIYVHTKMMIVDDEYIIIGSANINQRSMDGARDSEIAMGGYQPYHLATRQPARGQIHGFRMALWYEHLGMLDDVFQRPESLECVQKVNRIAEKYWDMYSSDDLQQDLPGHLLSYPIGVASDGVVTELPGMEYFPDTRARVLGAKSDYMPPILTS
Procedure: (§1) For the purification, a reference relating to the purification of rice bran PLD (Takano et al., J. Jpn. Soc. Food Sci. Technol., 34, 8-13 (1987)) was referred. The enzyme activity was measured by using phosphatidylcholine as the substrate and by quantifying the choline generated by the enzyme reaction by the choline oxidase method (Imamura et al., J. Biochem. 83, 677-680 (1978)). The enzyme reaction, however, was stopped by heat treatment at 95° C. for 5 minutes.
(§2) The two fractions were analyzed for properties of the enzymes contained therein. […] The pH stability means the range in which decrease in activity was not observed after leaving the enzyme to stand at 25° C. for 30 minutes. The temperature stability was measured by measuring remaining activity after leaving the enzyme to stand at 4° C., 25° C., 37° C. or 50° C. for 30 minutes. The substrate specificity was measured at a substrate concentration of 5 mM and is expressed as a relative activity taking the enzyme activity to phosphatidylcholine as 100.

[2] = target: T2, rice bran phospholipase D (PLD), Oryza sativa variety Koshihikari, eluted solution Mono Q 2nd-II (Oryza sativa, UniProt Q43007); assay: Km of purified rice bran PLD, fraction Mono Q 2nd-II (choline oxidase method); assay type: biochemical; settings: Mono Q 2nd-II fraction; phosphatidylcholine as the substrate, choline quantified by choline oxidase method
T2 construct: processed N-terminus (residues 1-46 removed according to earlier note), precursor 812 aa
T2 sequence (Q43007 47-812 P139S): as above
Procedure: as §1, §2

## phosphatidylcholine
[1]
  Km: 290 µM
[2]
  Km: 290 µM
